Experimental data from PubChem BioAssay (NCI).
Where “and” joins values, the source holds several entries; their conditions need not be identical. Equal values may be shown once.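 Following 48 hours of exposure in 96-well plates, responses at five concentrations were used to interpolate endpoints linearly. At the GI50, growth is halved. At the TGI there is no net growth.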

Key:
Experiment in all cases: growth of human tumour cells (NCI), 48 h
HOP-92 NSCLC = test system: HOP-92 NSCLC
IGROV1 ovarian = test system: IGROV1 ovarian
KM12 colon = test system: KM12 colon
K-562 leukemia = test system: K-562 leukemia
HS 578T breast = test system: HS 578T breast
A549 NSCLC = test system: A549 NSCLC
HCT-116 colon = test system: HCT-116 colon
SF-539 CNS = test system: SF-539 CNS
SF-268 CNS = test system: SF-268 CNS
HL-60(TB) leukemia = test system: HL-60(TB) leukemia

SMILES	GI50 (HOP-92 NSCLC)	TGI (HOP-92 NSCLC)	GI50 (IGROV1 ovarian)	TGI (IGROV1 ovarian)	GI50 (KM12 colon)	TGI (KM12 colon)	GI50 (K-562 leukemia)	TGI (K-562 leukemia)	GI50 (HS 578T breast)	GI50 (A549 NSCLC)	TGI (A549 NSCLC)	GI50 (HCT-116 colon)	TGI (HCT-116 colon)	GI50 (SF-539 CNS)	TGI (SF-539 CNS)	GI50 (SF-268 CNS)	TGI (SF-268 CNS)	GI50 (HL-60(TB) leukemia)	TGI (HS 578T breast)	TGI (HL-60(TB) leukemia)
O=C(Nc1ccc(-n2cc(-c3ccncc3)c(-c3ccc(Cl)c(O)c3)n2)cc1)c1ccc(Cl)c(C(F)(F)F)c1	1.99 µM	5.87 µM	3.11 µM	> 28.4 µM	0.451 µM	2.88 µM	0.404 µM	4.09 µM	0.538 µM	5.41 µM	> 31.4 µM	0.918 µM	2.45 µM	0.65 µM	2.99 µM	2.68 µM	> 31.8 µM	1.19 µM		
Nc1ncnc2c1c(-c1ccc(Oc3ccccc3)cc1)nn2C[C@H]1SSC[C@H]1O	2.03 µM	7.31 µM	0.455 µM	2.47 µM	0.0618 µM	2.22 µM	0.197 µM	3.1 µM	1.88 µM	0.394 µM	2.07 µM	0.0489 µM	1.21 µM	0.441 µM	5.97 µM			0.242 µM	8.7 µM	0.66 µM
O=C(O)c1cccc(F)c1C(=O)c1ccc2ccccc2c1		> 100 µM		> 100 µM		> 100 µM		> 100 µM			> 100 µM		> 100 µM		> 100 µM		> 100 µM		> 100 µM	> 100 µM
CCCCCCOc1ccc(/C=N/Nc2cc(C)nc3ccc(Br)cc23)cc1	1.45 µM	2.97 µM	1.75 µM	3.45 µM	1.8 µM	3.5 µM	1.07 µM	2.96 µM	2.16 µM	1.78 µM	3.43 µM	0.85 µM	2.11 µM	1.87 µM	3.29 µM	2.07 µM	4.24 µM	1.29 µM	4.49 µM	3.26 µM
COc1cc(-c2cc(C(=O)N3CCN(C(=O)c4ccccc4NCc4cccs4)CC3)nc3cc(-c4ccccc4)nn23)cc(OC)c1OC	2.41 µM	9.22 µM	13.9 µM	> 100 µM	3.16 µM	> 100 µM	1.38 µM	17.4 µM	36.2 µM	5.68 µM	> 100 µM	4.49 µM	> 100 µM	9.85 µM	> 100 µM	5.93 µM	> 100 µM	6.15 µM	> 100 µM	75.4 µM
N=C(N)c1ccc(-c2ccc(-c3ccccc3)o2)o1	1.85 µM	4.73 µM	2.89 µM	11.8 µM	2.61 µM	9.93 µM	0.657 µM	3.18 µM	3.81 µM	3.55 µM	11.7 µM	2.06 µM	5.29 µM	1.95 µM	4.43 µM	2.98 µM	12.3 µM	2.18 µM	21.2 µM	5.2 µM
NC(CSC(c1ccccc1)(c1ccccc1)c1ccc(Br)cc1)C(=O)O (stereo not drawn)	2.47 µM	39.6 µM	0.293 µM	40.8 µM	0.212 µM	12.7 µM	0.311 µM	20.6 µM	0.0621 µM	0.375 µM	> 82.3 µM	0.0469 µM	5.71 µM	0.11 µM	13.5 µM	0.151 µM	22.4 µM	0.412 µM	0.219 µM	75.3 µM
N[C@@H](Cc1ccc(N(CCCl)CCCl)cc1)C(=O)O	11.9 µM and 15 µM	52.3 µM and 42 µM and 103 µM	15.2 µM and 20.3 µM and 48.6 µM	74.3 µM and 57.1 µM and 139 µM	83.9 µM and 42.7 µM	> 100 µM and > 83.7 µM and 168 µM	37.8 µM	190 µM		23.9 µM and 16.7 µM	> 100 µM and > 90.2 µM and 186 µM	25.4 µM and 20.9 µM	> 100 µM and 51.1 µM and 137 µM	6.03 µM and 4.36 µM	49.6 µM and 8.61 µM and 53.8 µM	7.08 µM and 5.64 µM	> 100 µM and 52.2 µM and 148 µM	6.96 µM	> 100 µM and 165 µM	11.6 µM and 33 µM
Nc1nc(-c2ccccc2Cl)cc(-c2ccc(Cl)cc2Cl)n1	0.527 µM	7.62 µM	12.3 µM	> 100 µM	4.1 µM	31.3 µM	3.97 µM	> 100 µM	6.04 µM	4.81 µM	> 100 µM	4.27 µM	> 100 µM	7.39 µM	67 µM	5.01 µM	81.6 µM	3.14 µM	60.7 µM	17.3 µM
Cn1cc(C2=C(c3cn(CCCN/C(N)=N\[N+](=O)[O-])c4ccccc34)C(=O)NC2=O)c2ccccc21	3.89 µM	16.2 µM	3.11 µM	11.6 µM	2.77 µM	> 18.1 µM	2.95 µM	> 22.5 µM	1.42 µM	8.52 µM	> 25 µM	1.82 µM	> 25 µM	0.968 µM	5.11 µM	3.11 µM	11.6 µM	1.23 µM	14.5 µM	7.66 µM
Cc1nc(N(C)C)nc(-c2cccc(-c3ccn(CCN(C)C)n3)c2)c1C	4.71 µM	> 20 µM	> 20 µM	> 20 µM	> 20 µM	> 20 µM	> 20 µM	> 20 µM	12.7 µM	> 20 µM	> 20 µM	> 20 µM	> 20 µM	> 20 µM	> 20 µM	> 20 µM	> 20 µM	> 20 µM	> 20 µM	> 20 µM
CCCCCCCCCCCC(=O)[O][Sn]([CH2]CCC)([CH2]CCC)[CH2]CCC	0.0119 µM	0.0728 µM	0.0547 µM	0.175 µM	0.0357 µM	0.117 µM	0.0364 µM	0.286 µM	0.0549 µM	0.055 µM	0.185 µM	0.0379 µM	0.14 µM	0.0609 µM	0.141 µM	0.0535 µM	0.199 µM	0.0567 µM	0.296 µM	0.155 µM
C=C(C=O)[C@@H]1CC=C(C=O)CC1	2.38 µM	7.58 µM	3.19 µM	> 23.3 µM	4.21 µM	27.8 µM	1.7 µM	> 100 µM	3.36 µM	35.1 µM	> 91.7 µM			9.88 µM	33.5 µM	2.94 µM	16.1 µM	2.48 µM	42.4 µM	> 100 µM
